This passage reports TGI and GI50 results from PubChem BioAssay (NCI).

“And” between values parts separate entries of the source, which are not always exact repeats. Equal values may be shown once.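 Protocol summary: plate cells (96-well), add compound at 5 concentrations, incubate 48 h, interpolate endpoints linearly. At the GI50, growth is halved. The concentration for full growth arrest is given as TGI.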

Common to all, as to assay: growth of human tumour cells (NCI), 48 h
In experiment [1] the test system is A549 NSCLC.
Experiment [2] has as its system BT-549 breast.
In experiment [3] the test system is CAKI-1 renal.
Experiment [4] concerns HCT-15 colon.
In experiment [5] the test system is HOP-62 NSCLC.
Experiment [6] concerns OVCAR-3 ovarian.
Experiment [7] relates to RPMI-8226 leukemia.
In experiment [8] the test system is SR leukemia.
In experiment [9] the test system is UACC-62 melanoma.
In experiment [10] the test system is LOX IMVI melanoma.

As to `CC1(C)COCN1COC1CCCCC1`, the TGI in experiment [1], in experiment [2], in experiment [3], in experiment [4], in [5] and in experiment [6] was over 100 µM in each case. The values for the TGI in [7], in experiment [8] and in experiment [9] were over 100 µM, 44 µM and over 100 µM, respectively.

As for `CN(NC(=O)CC(=O)NN(C)C(=S)c1ccccc1)C(=S)c1ccccc1`, the GI50 in [1] is 16.7 µM; in experiment [2], 88.7 µM; in [3] it was over 55.7 µM; in experiment [4], 32.1 µM; in experiment [5] it was over 69.2 µM. Also, the TGI in experiment [1], in [2], in experiment [3], in [4], in experiment [5] and in experiment [10] was over 100 µM each time. The TGI in experiment [6], in experiment [7], in experiment [8] and in experiment [9] was over 100 µM throughout.

For `CCN(CC)CCOc1ccc(Nc2ncc3cc(-c4ccc(O)cc4)c(=O)n(C)c3n2)cc1`, the GI50 in experiment [1] was 13.8 µM; in experiment [2] it was 3.33 µM; in experiment [3], 0.0379 µM; in experiment [4], 0.191 µM; in [5], 2.78 µM; in experiment [10], 0.168 µM. Further, the GI50 in experiment [6] was 15.9 µM; in [7], 14.5 µM; in experiment [8], 0.0662 µM; in experiment [9], 17.5 µM. Moreover, the TGI in [1] amounted to 30.7 µM; in experiment [2] it was 16.5 µM; in [3] it was 16.1 µM; in [4], 1.75 µM; in experiment [5] it was 23.7 µM; in experiment [10], 5.87 µM. Further, the TGI was found to be 31.2 µM in experiment [6], 44.5 µM in experiment [7], 2.76 µM in [8] and 41 µM in [9].

For the compound `C[C@@H]1O[C@@H](O[C@@H]2[C@@H](O)[C@H](OCCc3ccc(O)c(O)c3)O[C@H](COC(=O)/C=C/c3ccc(O)c(O)c3)[C@H]2O)[C@H](O)[C@H](O)[C@H]1O`, the GI50 in experiment [1] was over 100 µM; in experiment [2] it was 12.8 µM; in experiment [3], 98.3 µM; in experiment [4] it was over 100 µM; in [5], over 100 µM; in experiment [10], 18.3 µM. Besides, the GI50 in experiment [6] was 13 µM; in experiment [7], 13.7 µM; in experiment [8] it was 41.3 µM; in experiment [9], over 100 µM. The TGI is over 100 µM in experiment [1]; 30 µM in [2]; over 100 µM in experiment [3]; over 100 µM in experiment [4]; over 100 µM in [5]; 34.4 µM in experiment [10]. For the same compound, the TGI in experiment [6] is over 100 µM; in experiment [7], 43.4 µM; in experiment [8], over 100 µM; in experiment [9], over 100 µM.

In the case of `N#CC1=C(N)N=C(N2CCCCC2)C(C#N)C12Nc1ccccc1S2` (configuration not stated), the GI50 in [1] was 29.5 µM; in [2], 33.3 µM; in experiment [4] it was 22 µM; in experiment [5], 27.7 µM; in [10], 20.7 µM; in experiment [7], 84 µM. Further, the results for the GI50 in experiment [8] and in experiment [9] were over 100 µM and 16.9 µM, respectively. Besides, the TGI in experiment [1] is over 100 µM; in [2] it was over 100 µM; in experiment [4], over 100 µM; in [5], over 100 µM; in experiment [10], 51.8 µM; in experiment [7] it was over 100 µM. The TGI is over 100 µM in [8] and 49.1 µM in experiment [9].

For `C=C(Cl)COC(=O)Nc1cccc(Cl)c1`, the TGI in experiment [1] is over 100 µM; in experiment [2], 87.2 µM; in experiment [3], over 100 µM; in experiment [4], over 100 µM; in experiment [5], over 100 µM; in experiment [10], over 100 µM. For the same compound, the TGI is over 100 µM in [6], over 100 µM in experiment [7], over 100 µM in experiment [8] and 59.5 µM in experiment [9].

Consider `C=C1C[C@@H]2C/C=C/C(=O)C/C(C)=C\C=C\C(=O)O[C@H](C=O)C/C(C)=C/[C@H](C1)O2`, for which the GI50 in experiment [1] is 1.98 µM; in experiment [2], 0.315 µM; in experiment [3] it was 4.71 µM; in experiment [4] it was 0.485 µM; in [5] it was 1.75 µM; in [10] it was 0.711 µM. The GI50 in [6] is 0.557 µM; in [7] it was 0.295 µM; in experiment [8], 1.18 µM; in experiment [9] it was 0.818 µM. Further, the TGI is over 100 µM in [1]; 0.94 µM in [2]; 26 µM in [3]; 16.2 µM in experiment [4]; 17.3 µM in [5]; 13.5 µM in [10]. The TGI is 24.4 µM in [6], 3.29 µM in experiment [7], 6.77 µM in [8] and 14 µM in experiment [9].

Take `Nc1nc(Nc2ccc3c(c2)CC[C@@H](N2CCCC2)CC3)nn1-c1cc2c(nn1)-c1ccccc1CCC2`: the GI50 in [1] is 1.63 µM; in [2] it was 1.6 µM; in experiment [3], 1.22 µM; in experiment [4], 0.798 µM; in [10] it was 1.5 µM; in experiment [6], 1.74 µM. Further, the GI50 was 0.441 µM in [8] and 1.89 µM in experiment [9]. In addition, the TGI in experiment [1] was found to be 3.57 µM; in experiment [2] it was 3.36 µM; in experiment [3], 2.5 µM; in [4], 2.26 µM; in experiment [10], 2.92 µM; in [6], 3.36 µM. The figures for the TGI in experiment [8] and in experiment [9] were 2.69 µM and 3.67 µM, respectively.

As to `CCCCCNC(=O)[C@@H]1CCCN2C(=O)CC[C@H](NC(=O)[C@H](Cc3ccc(OP(=O)(O)O)cc3)NC(C)=O)C(=O)N12`, the GI50 in [1], in experiment [2], in experiment [3], in [4], in [5] and in [10] was over 25 µM in each case. In addition, the GI50 in [6], in [7], in [8] and in experiment [9] was over 25 µM each time. Also, the TGI in [1], in experiment [2], in experiment [3], in experiment [4], in experiment [5] and in [10] was over 25 µM in each case. Moreover, the TGI in experiment [6], in experiment [7], in experiment [8] and in [9] was over 25 µM throughout.

For `CN(C)NC1=NS(=O)(=O)c2cc3c(cc2S1)N(N(C)C)C(=O)c1cc2c(cc1N(N(C)C)C3=O)SC(NN(C)C)=NS2(=O)=O`, the TGI in experiment [1], in experiment [2], in experiment [3], in [4], in [5] and in experiment [10] was over 10 µM each time. Also, the TGI in experiment [6], in [7] and in [8] was over 10 µM throughout.

Consider `OCC(O)C(O)C(O)C1SC(c2ccccc2)=NN1c1ccccc1` (configuration not stated), for which the TGI in experiment [1], in [2], in [3], in experiment [4], in [5] and in experiment [10] was over 100 µM in each case. The TGI in experiment [6] is over 87.6 µM; in experiment [7], over 100 µM; in experiment [8], over 100 µM; in [9], 74.2 µM.

On to `O=C(/C=C/C=C/c1ccccc1)CCc1ccccc1`, for which the TGI in experiment [1], in experiment [2], in experiment [3], in experiment [4], in experiment [5] and in experiment [10] was over 100 µM throughout. The results for the TGI in [6], in experiment [8] and in [9] were over 100 µM, 63.7 µM and over 100 µM, respectively.

Regarding `Nc1ccc(C(=O)c2ccc(N)c(Br)c2)cc1Br`, the GI50 was 0.494 µM in experiment [1]; 1.84 µM in experiment [2]; 0.299 µM in experiment [3]; 0.466 µM in [4]; 0.538 µM in [5]; 0.848 µM in experiment [10]. Further, the GI50 in [6] is 0.234 µM; in [7], 0.346 µM; in [8], 0.253 µM; in [9] it was 0.645 µM. Also, the TGI in [1] was 31.3 µM; in experiment [2], 18.8 µM; in experiment [3] it was 14.7 µM; in experiment [4] it was over 100 µM; in experiment [5], 22.7 µM; in experiment [10], over 65.7 µM. Besides, the TGI in experiment [6] was 0.517 µM; in experiment [7], 3.73 µM; in experiment [8] it was 1.35 µM; in [9], over 62.1 µM.

Regarding `O=C(NC1CC1)c1ccc(-c2nc3ccc4[nH]ncc4c3c3c2CCCC3)cc1`, the GI50 in experiment [1] is 1.63 µM; in experiment [2], 1.51 µM; in [4] it was 1.58 µM; in [5], 1.25 µM; in [10] it was 1.95 µM; in experiment [6], 4.04 µM. Besides, the GI50 is 1.08 µM in [7], 0.987 µM in experiment [8] and 2.19 µM in experiment [9]. The TGI in experiment [1] is over 50 µM; in [2], 7.69 µM; in [4], 13.9 µM; in experiment [5], 24.8 µM; in [10] it was 11.7 µM; in [6], 15.8 µM. Moreover, the TGI in [7] worked out at 12 µM; in experiment [8], 6.02 µM; in [9], 9.77 µM.

As to `Cc1ccccc1C(=O)C#Cc1cn(C2CC(O)C(CO)O2)c(=O)[nH]c1=O` (configuration not stated), the TGI in experiment [1], in experiment [2], in experiment [3], in experiment [4], in [5] and in experiment [6] was over 100 µM in each case. Moreover, the TGI in experiment [7], in experiment [8] and in experiment [9] was over 100 µM in each case.

As to `O=C1C(=Cc2ccco2)C(=O)C2CCCCC12` (configuration not stated), the TGI in experiment [1], in experiment [2], in experiment [3], in [4], in [5] and in experiment [10] was over 100 µM each time. Moreover, the TGI in experiment [6], in [7], in experiment [8] and in experiment [9] was over 100 µM throughout.

In the case of `FC(F)(F)c1cccc(COCCN2CCN(Cc3cccc(C(F)(F)F)c3)CC2)c1`, the TGI in [1] was determined as 30.9 µM; in experiment [2] it was 29.6 µM; in [3], 31.3 µM; in [4] it was 31.5 µM; in experiment [5], 42.1 µM; in experiment [6], 42.9 µM. The TGI in [8] is over 100 µM; in experiment [9], 28.6 µM.

Consider `COc1ccc(/C=C\c2cc(OC)c(OC)c(OC)c2)cc1OC(=O)C(N)CCC(=O)O` (configuration not stated), for which the GI50 was 0.00398 µM and 0.0108 µM in experiment [1]; 0.000605 µM and 0.000284 µM and < 0.0001 µM in experiment [10]; 0.000393 µM in [6]; 0.000691 µM and < 0.0316 µM in [7]; 0.000532 µM in experiment [8]; 0.000597 µM in [9]. Also, the TGI in [1] is 28.4 µM and > 100 µM; in experiment [2], 0.00299 µM; in experiment [5] it was over 100 µM; in experiment [10] it was over 33.9 µM; in experiment [9], over 100 µM.

As for `COc1ccc2c(c1)nc(N)c1c3cc(OC)c(OC)cc3cn21`, the GI50 was 0.0925 µM in experiment [1]; 0.827 µM in experiment [2]; under 0.01 µM in [4]; 0.0968 µM in experiment [7]; under 0.01 µM in experiment [8]; under 0.01 µM in [9]. Also, the TGI in experiment [1] was found to be 16.6 µM; in experiment [2], 15.2 µM; in experiment [3] it was 19.8 µM; in experiment [4] it was 13.3 µM; in [5], 16.9 µM; in experiment [10] it was 18.4 µM. For the same compound, the TGI was determined as 12.8 µM in experiment [7], 5.04 µM in experiment [8] and 21.7 µM in experiment [9].

Take `C[C@]12CC[C@H](O)CC1=CC[C@@H]1C2CC[C@]2(C)c3nn(-c4ccc(F)cc4)nc3CC12` (some centres not stated): the TGI in experiment [1], in [2], in experiment [3], in experiment [5], in experiment [6] and in experiment [8] was over 100 µM throughout. Moreover, the TGI in [9] is over 100 µM.
